Data as given in patent US11111251B2, “Positive allosteric modulators of the muscarinic acetylcholine receptor M1” (Vanderbilt University, priority 2016, dated 2021).
pEC50: −log10 of the molar value. Where two headings read alike, the source gives them in different places.

Target: T1, human mAChR M1 (Homo sapiens, UniProt P11229)
T1 sequence (P11229 1-460): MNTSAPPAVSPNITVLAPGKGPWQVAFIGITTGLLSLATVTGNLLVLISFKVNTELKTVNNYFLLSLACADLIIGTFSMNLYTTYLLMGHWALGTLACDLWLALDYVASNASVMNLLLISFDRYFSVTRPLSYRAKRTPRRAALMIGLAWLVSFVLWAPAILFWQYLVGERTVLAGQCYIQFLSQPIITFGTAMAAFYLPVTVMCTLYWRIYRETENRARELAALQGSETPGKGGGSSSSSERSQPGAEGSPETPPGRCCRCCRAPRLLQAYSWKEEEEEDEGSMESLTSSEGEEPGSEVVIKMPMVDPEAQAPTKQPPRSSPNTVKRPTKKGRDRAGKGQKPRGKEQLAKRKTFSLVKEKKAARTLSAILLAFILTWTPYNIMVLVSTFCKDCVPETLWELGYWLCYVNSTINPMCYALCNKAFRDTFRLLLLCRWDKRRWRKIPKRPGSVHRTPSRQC
Assay: mAChR M1 cell-based functional assay: calcium mobilization, positive allosteric modulator mode (increase in EC20 acetylcholine response)
Conditions: for Emax: read-out: Human M1 Emax (%)
Source text: a. Cell Lines Expressing Muscarinic Acetylcholine Receptors
Chinese hamster ovary (CHO-K1) cells stably expressing rat (r)M1 were purchased from the American Type Culture Collection and cultured according to their indicated protocol. CHO cells stably expressing human (h)M2, hM3, and hM5 were described previously (Levey, et al., 1991); hMi and hM4 cDNAs were purchased from Missouri S&T cDNA Resource; rM4 cDNA was provided by T. I. Bonner (National Institutes of Health, Bethesda, Md.). rM2 and rM3 were cloned from a rat brain cDNA library and sequence verified. hMi, rM2, rM3, hM4, and rM4 cDNAs were used to stably transfect CHO-K1 cells purchased from the American Type Culture Collection using Lipofectamine2000. To make stable rM2, hM2, rM3, hM4, and rM4 cell lines for use in calcium mobilization assays, these cells also were stably transfected with a chimeric G-protein (Gqi5) (provided by B. R. Conklin, University of California, San Francisco) using Lipofectamine 2000. rMi, hMi, rM3, hM3, rM5, and hM5 cells were grown in Ham's F-12 medium containing 10% heat-inactivated fetal bovine serum (FBS), 20 mM HEPES, and 50 μg/mL G418 sulfate. rM2-Gqi5, hM2-Gqi5, and hM4-Gqi5 cells were grown in the same medium also containing 500 μg/mL Hygromycin B. Stable rM4-Gqi5 cells were grown in DMEM containing 10% heat-inactivated FBS, 20 mM HEPES, 400 μg/mL G418 sulfate, and 500 μg/mL Hygromycin B.
b. Cell-Based Functional Assay of Muscarinic Acetylcholine Receptor Activity
For high throughput measurement of agonist-evoked increases in intracellular calcium, CHO-K1 cells stably expressing muscarinic receptors were plated in growth medium lacking G418 and hygromycin at 15,000 cells/20 μL/well in Greiner 384-well black-walled, tissue culture (TC)-treated, clear-bottom plates (VWR). Cells were incubated overnight at 37° C. and 5% CO2. The next day, cells were washed using an ELX 405 (BioTek) with four washes (80 μL) of assay buffer then aspirated to 20 μL. Next, 20 μL of 16 μM Fluo-4/acetoxymethyl ester (Invitrogen, Carlsbad, Calif.) prepared as a 2.3 mM stock in DMSO and mixed in a 1:1 ratio with 10% (w/v) Pluronic F-127 and diluted in assay buffer was added to the wells and the cell plates were incubated for 50 min at 37° C. and 5% CO2. Dye was removed by washing with the ELX 405 (four […], washes of assay buffer) then aspirated to 20 μL. Compound master plates were formatted in an 11 point CRC format (1:3 dilutions) in 100% DMSO with a starting concentration of 10 mM using the BRAVO liquid handler (Agilent). Test compound CRCs were then transferred to daughter plates (240 nL) using the Echo acoustic plate reformatter (Labcyte, Sunnyvale, Calif.) and then diluted into assay buffer (40 μL) to a 2× stock using a Thermo Fisher Combi (Thermo Fisher Scientific, Waltham, Mass.).
Calcium flux was measured using the Functional Drug Screening System (FDSS) 6000 (Hamamatsu Corporation, Tokyo, Japan) as an increase in the fluorescent static ratio. Compounds were applied to cells (20 μL, 2×) using the automated system of the FDSS 6000 at 4 s into the 300 s protocol and the data were collected at 1 Hz. At 144 s into the 300s protocol, 10 μL of an EC20 concentration of the muscarinic receptor agonist acetylcholine was added (5×), followed by the addition of 12 μL an EC80 concentration of acetylcholine at the 230 s time point (5×). Agonist activity was analyzed as a concentration-dependent increase in calcium mobilization upon compound addition. Positive allosteric modulator activity was analyzed as a concentration-dependent increase in the EC20 acetylcholine response. Antagonist activity was analyzed as a concentration-dependent decrease in the EC80 acetylcholine response. Concentration-response curves were generated using a four-parameter logistical equation in XLfit curve fitting software (IDBS, Bridgewater, N.J.) for Excel (Microsoft, Redmond, Wash.) or Prism (GraphPad Software, Inc., San Diego, Calif.).

[1] = Table 1, mAChR M1 cell-based functional assay, PAM mode, species not given, read-out: EC50
[2] = Table 2, human M1, read-out: Human M1 EC50

Structure (SMILES): Cc1ccc(Oc2cc(C(=O)NCC3CCCO3)nc3ccsc23)cn1 (centres unmarked) [Compound 35, 7-[(6-methyl-3-pyridyl)oxy]-N-(tetrahydrofuran-2-ylmethyl)thieno[3,2-b]pyridine-5-carboxamide]
- pEC50 [1]: < 5.00

Structure (SMILES): Cc1ccc(Oc2cc(C(=O)NC3CCCCNC3=O)nc3ccsc23)cn1 (centres unmarked) [Compound 36, 7-[(6-methyl-3-pyridyl)oxy]-N-(2-oxoazepan-3-yl)thieno[3,2-b]pyridine-5-carboxamide]
- pEC50 [1]: < 5.00

Structure (SMILES): Cn1cc2c(-c3cc(F)c(Cc4cc(C(=O)N[C@H]5CCCC[C@@H]5O)nc5ccsc45)c(F)c3)cccc2n1 [Compound 41, 7-[[2,6-difluoro-4-(2-methylindazol-4-yl)phenyl]methyl]-N-[(1S,2S)-2-hydroxycyclohexyl]thieno[3,2-b]pyridine-5-carboxamide]
- pEC50 [1]: 5.44

Structure (SMILES): Cc1ccc(Cc2cc(C(=O)N[C@H]3CCC[C@@H]3O)nc3ccsc23)cn1 [Compound 42, N-[(1S,2S)-2-hydroxycyclopentyl]-7-[(6-methyl-3-pyridyl)methyl]thieno[3,2-b]pyridine-5-carboxamide]
- pEC50 [1]: 6.44

Structure (SMILES): Cc1ccc(Cc2cc(C(=O)NC3CCCCC3)nc3ccsc23)cn1 [Compound 43, N-cyclohexyl-7-[(6-methyl-3-pyridyl)methyl]thieno[3,2-b]pyridine-5-carboxamide]
- pEC50 [1]: 5.70

Structure (SMILES): Cc1ccc(Cc2cc(C(=O)N[C@@H]3CC[C@H]3O)nc3ccsc23)cn1 [Compound 44]
- pEC50 [1]: 5.42

Structure (SMILES): Cc1ccc(Cc2cc(C(=O)N[C@H]3CCOC[C@@H]3O)nc3ccsc23)cn1 [Compound 45, N-[(3R,4S)-3-hydroxytetrahydropyran-4-yl]-7-[(6-methyl-3-pyridyl)methyl]thieno[3,2-b]pyridine-5-carboxamide]
- pEC50 [1]: 7.10

Structure (SMILES): Cc1ccc(Cc2cc(C(=O)N[C@H]3COCC[C@@H]3O)nc3ccsc23)cn1 [Compound 46, N-[(3S,4S)-4-hydroxytetrahydropyran-3-yl]-7-[(6-methyl-3-pyridyl)methyl]thieno[3,2-b]pyridine-5-carboxamide]
- pEC50 [1]: 7.54

Structure (SMILES): Cc1ccc(Cc2cc(C(=O)N[C@H]3CCCCC[C@@H]3O)nc3ccsc23)cn1 [Compound 47, N-[(1S,2S)-2-hydroxycycloheptyl]-7-[(6-methyl-3-pyridyl)methyl]thieno[3,2-b]pyridine-5-carboxamide]
- pEC50 [1]: 6.93

Structure (SMILES): CO[C@H]1CCCC[C@@H]1NC(=O)c1cc(Cc2ccc(C)nc2)c2sccc2n1 [Compound 48, N-[(1S,2S)-2-methoxycyclohexyl]-7-[(6-methyl-3-pyridyl)methyl]thieno[3,2-b]pyridine-5-carboxamide]
- pEC50 [1]: 5.24

Structure (SMILES): Cc1ccc(Cc2cc(C(=O)NC3CCCC(O)C3)nc3ccsc23)cn1 (centres unmarked) [Compound 49, N-(3-hydroxycyclohexyl)-7-[(6-methyl-3-pyridyl)methyl]thieno[3,2-b]pyridine-5-carboxamide]
- pEC50 [1]: < 5.00

Structure (SMILES): Cc1ccc(Cc2cc(C(=O)NC3CCOCC3)nc3ccsc23)cn1 [Compound 50, 7-[(6-methyl-3-pyridyl)methyl]-N-tetrahydropyran-4-yl-thieno[3,2-b]pyridine-5-carboxamide]
- pEC50 [1]: 5.30

Structure (SMILES): Cn1cc(-c2ccc(Cc3cc(C(=O)N[C@H]4CCCC[C@@H]4O)nc4ccsc34)c(F)c2)cn1 [Compound 51, 7-[[2-fluoro-4-(1-methylpyrazol-4-yl)phenyl]methyl]-N-[(1S,2S)-2-hydroxycyclohexyl]thieno[3,2-b]pyridine-5-carboxamide]
- pEC50 [2]: 5.44
- Emax (Table 2, human M1): 76.9%

Structure (SMILES): Cn1cc(-c2ccc(Cc3cc(C(=O)N[C@H]4CCOC[C@@H]4O)nc4ccsc34)c(F)c2)cn1 [Compound 52, 7-[[2-fluoro-4-(1-methylpyrazol-4-yl)phenyl]methyl]-N-[(3R,4S)-3-hydroxytetrahydropyran-4-yl]thieno[3,2-b]pyridine-5-carboxamide]
- pEC50 [2]: 5.71
- Emax (Table 2, human M1): 76%

Structure (SMILES): Cn1cc(-c2ccc(Cc3cc(C(=O)N[C@H]4COCC[C@@H]4O)nc4ccsc34)c(F)c2)cn1 [Compound 53, 7-[[2-fluoro-4-(1-methylpyrazol-4-yl)phenyl]methyl]-N-[(3S,4S)-4-hydroxytetrahydropyran-3-yl]thieno[3,2-b]pyridine-5-carboxamide]
- pEC50 [2]: 5.51
- Emax (Table 2, human M1): 79%

Structure (SMILES): Cn1cc(-c2ccc(Cc3cc(C(=O)N[C@H]4CCCCC[C@@H]4O)nc4ccsc34)c(F)c2)cn1 [Compound 54, 7-[[2-fluoro-4-(1-methylpyrazol-4-yl)phenyl]methyl]-N-[(1S,2S)-2-hydroxycycloheptyl]thieno[3,2-b]pyridine-5-carboxamide]
- pEC50 [2]: < 5.00
- Emax (Table 2, human M1): 53.1%

Structure (SMILES): Cn1cc(-c2ccc(Cc3cc(C(=O)N[C@@H]4CC[C@H]4O)nc4ccsc34)c(F)c2)cn1 [Compound 55, 7-[[2-fluoro-4-(1-methylpyrazol-4-yl)phenyl]methyl]-N-[(1R,2R)-2-hydroxycyclobutyl]thieno[3,2-b]pyridine-5-carboxamide]
- pEC50 [2]: 5.24
- Emax (Table 2, human M1): 31.1%

Structure (SMILES): Cn1cc(-c2ccc(Cc3cc(C(=O)N[C@H]4CCC[C@@H]4O)nc4ccsc34)c(F)c2)cn1 [Compound 56, 7-[[2-fluoro-4-(1-methylpyrazol-4-yl)phenyl]methyl]-N-[(1S,2S)-2-hydroxycyclopentyl]thieno[3,2-b]pyridine-5-carboxamide]
- pEC50 [2]: 5.49
- Emax (Table 2, human M1): 51%

Structure (SMILES): Cn1cc(-c2cc(F)c(Cc3cc(C(=O)N[C@H]4CCCC[C@@H]4O)nc4ccsc34)c(F)c2)cn1 [Compound 57, 7-[[2,6-difluoro-4-(1-methylpyrazol-4-yl)phenyl]methyl]-N-[(1S,2S)-2-hydroxycyclohexyl]thieno[3,2-b]pyridine-5-carboxamide]
- pEC50 [2]: 5.58
- Emax (Table 2, human M1): 80.1%

Structure (SMILES): Cn1cc(-c2cc(F)c(Cc3cc(C(=O)N[C@H]4CCC[C@@H]4O)nc4ccsc34)c(F)c2)cn1 [Compound 58, 7-[[2,6-difluoro-4-(1-methylpyrazol-4-yl)phenyl]methyl]-N-[(1S,2S)-2-hydroxycyclopentyl]thieno[3,2-b]pyridine-5-carboxamide]
- pEC50 [2]: 5.22
- Emax (Table 2, human M1): 50.2%

Structure (SMILES): Cn1cc(-c2cc(F)c(Cc3cc(C(=O)N[C@H]4CCOC[C@@H]4O)nc4ccsc34)c(F)c2)cn1 [Compound 59, 7-[[2,6-difluoro-4-(1-methylpyrazol-4-yl)phenyl]methyl]-N-[(3R,4S)-3-hydroxytetrahydropyran-4-yl]thieno[3,2-b]pyridine-5-carboxamide]
- pEC50 [2]: 5.55
- Emax (Table 2, human M1): 88.5%

Structure (SMILES): Cn1cc(-c2cc(F)c(Cc3cc(C(=O)N[C@H]4COCC[C@@H]4O)nc4ccsc34)c(F)c2)cn1 [Compound 60, 7-[[2,6-difluoro-4-(1-methylpyrazol-4-yl)phenyl]methyl]-N-[(3S,4S)-4-hydroxytetrahydropyran-3-yl]thieno[3,2-b]pyridine-5-carboxamide]
- pEC50 [2]: 5.25
- Emax (Table 2, human M1): 71.6%
